Experimental data as given in patent US12281122B1, “PI3K inhibitors” (Cogent Biosciences, Inc., priority 2023, dated 2025).

Columns and labels:
[1] = system: T47D (PI3Kα-H1047R) cell line; test: HTRF phospho-AKT(S473) cell assay in T47D cells; format: cell-based, human; conditions: Homo sapiens, 2 hours compound incubation
Procedure, shortened: (§1)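 Cells plated overnight (T47D in RPMI/10% FBS/0.2 units/mL insulin; SKBR3 in McCoy's 5A/10% FBS), then given 12-point 1:3 compound series (top 5 μM T47D, 10 μM SKBR3; ≤0.5% DMSO) for 2 h at 37° C. SKBR3 stimulated with 70 ng/ml PDGF-BB for final 15 min. Lysate pAKT(S473) by HTRF; IC50 calculated.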

[2] = system: SKBR3 (PI3Kα-Wild Type) cell line; test: HTRF phospho-AKT(S473) cell assay in SKBR3 cells; format: cell-based, human; conditions: Homo sapiens, SK-BR-3, 2 hours compound incubation, PDGF-BB stimulated
Procedure, shortened: as §1

[3] = T47D (PI3Kα-H1047R) cells, HTRF phospho-AKT(S473)
[4] = SKBR3 (PI3Kα-Wild Type) cells, HTRF phospho-AKT(S473)
[5] = HTRF phospho-AKT(S473), T47D (PI3Kα-H1047R) cells
[6] = HTRF phospho-AKT(S473), SKBR3 (PI3Kα-Wild Type) cells

| IC50 [1, 5] [µM] | IC50 [2, 6] [µM] | Compound | also measured |
| --- | --- | --- | --- |
| – | – | Cc1cc([C@@H](C)Nc2ccc(Cl)nc2C(=O)NS(C)(=O)=O)c2nc(N3CCC(c4ccnn4C(F)F)CC3)n(C)c(=O)c2c1 [Compound 414, (R)-6-chloro-3-((1-(2-(4-(1-(difluoromethyl)-1H-pyrazol-5-yl)piperidin-1-yl)-3,6-dimethyl-4-oxo-3,4-dihydroquinazolin-8-yl)ethyl)amino)-N-(methylsulfonyl) picolinamide] | IC50 [1, 3]: < 0.25 µM; IC50 [2, 4]: 1 to 5 µM |
| 0.25 to 0.5 | ≥ 5 | Cc1cc([C@@H](C)Nc2ccc(Cl)nc2C(=O)NS(C)(=O)=O)c2nc(N3C[C@@H]4[C@H](C3)[C@H]4c3ccnc(N(C)C)c3)n(C)c(=O)c2c1 [Compound 745, 6-chloro-3-(((R)-1-(2-((1R,5S,6S)-6-(2-(dimethylamino)pyridin-4-yl)-3-azabicyclo[3.1.0]hexan-3-yl)-3,6-dimethyl-4-oxo-3,4-dihydroquinazolin-8-yl)ethyl)amino)-N-(methylsulfonyl) picolinamide] | – |
| – | – | Cc1cnc(-c2ccc(-c3nc4c([C@@H](C)Nc5ccc(Cl)nc5C(=O)NS(C)(=O)=O)cc(C)cc4c(=O)n3C)cn2)nc1 [Compound 851, (R)-6-chloro-3-((1-(3,6-dimethyl-2-(6-(5-methylpyrimidin-2-yl)pyridin-3-yl)-4-oxo-3,4-dihydroquinazolin-8-yl)ethyl)amino)-N-(methylsulfonyl) picolinamide] | IC50 ([1]; T47D (PI3Kα-H1047R) cell line, phospho-AKT(S473) HTRF): 0.25 to 0.5 µM; IC50 ([2]; SKBR3 (PI3Kα-Wild Type) cell line, phospho-AKT(S473) HTRF): 1 to 5 µM |
| < 0.25 | 1 to 5 | Cc1cc([C@@H](C)Nc2ccc(Cl)nc2C(=O)NS(C)(=O)=O)c2nc(N3C[C@@H]4[C@H](C3)[C@H]4c3ccnn3C(F)F)n(C)c(=O)c2c1 [Compound 471, 6-chloro-3-(((R)-1-(2-((1R,5S,6R)-6-(1-(difluoromethyl)-1H-pyrazol-5-yl)-3-azabicyclo[3.1.0]hexan-3-yl)-3,6-dimethyl-4-oxo-3,4-dihydroquinazolin-8-yl)ethyl)amino)-N-(methylsulfonyl) picolinamide] | – |
| – | – | COc1cnc(C2CCN(c3nc4c([C@@H](C)Nc5ccc(Cl)nc5C(=O)NS(C)(=O)=O)cc(C)cc4c(=O)n3C)CC2)cn1 [Compound 408, (R)-6-chloro-3-((1-(2-(4-(5-methoxypyrazin-2-yl)piperidin-1-yl)-3,6-dimethyl-4-oxo-3,4-dihydroquinazolin-8-yl)ethyl)amino)-N-(methylsulfonyl) picolinamide] | IC50 [1, 3]: < 0.25 µM; IC50 [2, 4]: ≥ 5 µM |
| 1 to 5 | ≥ 5 | Cc1cc([C@@H](C)Nc2ccc(Cl)nc2C(=O)NS(C)(=O)=O)c2nc(N3CC[C@@H](Oc4ccnnc4)C3)n(C)c(=O)c2c1 [Compound 710, 6-chloro-3-(((R)-1-(3,6-dimethyl-4-oxo-2-((R)-3-(pyridazin-4-yloxy)pyrrolidin-1-yl)-3,4-dihydroquinazolin-8-yl)ethyl)amino)-N-(methylsulfonyl) picolinamide] | – |
| 0.5 to 1 | ≥ 5 | Cc1cc([C@@H](C)Nc2ccc(Cl)nc2C(=O)NS(C)(=O)=O)c2nc(N3C[C@@H]4C[C@H]3CN4c3cnc(C)c(F)c3)n(C)c(=O)c2c1 [Compound 608, 6-chloro-3-(((R)-1-(2-((1S,4S)-5-(5-fluoro-6-methylpyridin-3-yl)-2,5-diazabicyclo [2.2.1]heptan-2-yl)-3,6-dimethyl-4-oxo-3,4-dihydroquinazolin-8-yl)ethyl)amino)-N-(methylsulfonyl) picolinamide] | – |
| < 0.25 | ≥ 5 | CCn1c(N2CCC(c3nc(C)n(C)n3)CC2)nc2c([C@@H](C)Nc3ccc(Cl)nc3C(=O)NS(C)(=O)=O)cc(C)cc2c1=O [Compound 616, (R)-6-chloro-3-((1-(2-(4-(1,5-dimethyl-1H-1,2,4-triazol-3-yl)piperidin-1-yl)-3-ethyl-6-methyl-4-oxo-3,4-dihydroquinazolin-8-yl)ethyl)amino)-N-(methylsulfonyl) picolinamide] | – |
| – | – | Cc1cc([C@@H](C)Nc2ccc(Cl)nc2C(=O)NS(C)(=O)=O)c2nc(N3CCC(n4nccc4N(C)C)CC3)n(C)c(=O)c2c1 [Compound 309, (R)-6-chloro-3-((1-(2-(4-(5-(dimethylamino)-1H-pyrazol-1-yl)piperidin-1-yl)-3,6-dimethyl-4-oxo-3,4-dihydroquinazolin-8-yl)ethyl)amino)-N-(methylsulfonyl) picolinamide] | IC50 [1, 3]: 0.25 to 0.5 µM; IC50 [2, 4]: ≥ 5 µM |
| < 0.25 | 1 to 5 | Cc1cc([C@@H](C)Nc2ccc(Cl)nc2C(=O)NS(C)(=O)=O)c2nc(N3CCC(c4nc(C)no4)CC3)n(C)c(=O)c2c1 [Compound 595, (R)-6-chloro-3-((1-(3,6-dimethyl-2-(4-(3-methyl-1,2,4-oxadiazol-5-yl)piperidin-1-yl)-4-oxo-3,4-dihydroquinazolin-8-yl)ethyl)amino)-N-(methylsulfonyl) picolinamide] | – |
| < 0.25 | 1 to 5 | C[C@@H](Nc1ccc(Cl)nc1C(=O)NS(C)(=O)=O)c1cc(Cl)cc2c(=O)n(C)c(N3C[C@@H]4[C@H](C3)[C@H]4c3ccn(C)n3)nc12 [Compound 451, 6-chloro-3-(((R)-1-(6-chloro-3-methyl-2-((1R,5S,6R)-6-(1-methyl-1H-pyrazol-3-yl)-3-azabicyclo[3.1.0]hexan-3-yl)-4-oxo-3,4-dihydroquinazolin-8-yl)ethyl)amino)-N-(methylsulfonyl) picolinamide] | – |
| – | – | Cc1cc([C@@H](C)Nc2ccc(Cl)nc2C(=O)NS(C)(=O)=O)c2nc(N3CCN(c4cnc(C)cn4)CC3)n(C)c(=O)c2c1 [Compound 369, (R)-6-chloro-3-((1-(3,6-dimethyl-2-(4-(5-methylpyrazin-2-yl)piperazin-1-yl)-4-oxo-3,4-dihydroquinazolin-8-yl)ethyl)amino)-N-(methylsulfonyl) picolinamide] | IC50 [1, 3]: < 0.25 µM; IC50 [2, 4]: 1 to 5 µM |
| 0.25 to 0.5 | 1 to 5 | Cc1cc([C@@H](C)Nc2ccc(Cl)nc2C(=O)NS(C)(=O)=O)c2nc(N3CCC(c4ccc(F)cn4)C3)n(C)c(=O)c2c1 (stereo partly drawn) [Compound 679, 6-chloro-3-(((1R)-1-(2-(3-(5-fluoropyridin-2-yl)pyrrolidin-1-yl)-3,6-dimethyl-4-oxo-3,4-dihydroquinazolin-8-yl)ethyl)amino)-N-(methylsulfonyl) picolinamide] | – |
| < 0.25 | 1 to 5 | Cc1cc([C@@H](C)Nc2ccc(Cl)nc2C(=O)NS(C)(=O)=O)c2nc(N3CC[C@H](Oc4ccc(C)nn4)C3)n(C)c(=O)c2c1 [Compound 527, 6-chloro-3-(((R)-1-(3,6-dimethyl-2-((S)-3-((6-methylpyridazin-3-yl)oxy)pyrrolidin-1-yl)-4-oxo-3,4-dihydroquinazolin-8-yl)ethyl)amino)-N-(methylsulfonyl) picolinamide] | – |

| Compound | IC50 [1, 5] [µM] | IC50 [2, 6] [µM] | also measured |
| --- | --- | --- | --- |
| Cc1cc([C@@H](C)Nc2ccc(Cl)nc2C(=O)NS(C)(=O)=O)c2nc(N3[C@@H]4CC[C@H]3C[C@H](n3cc(C)cn3)C4)n(C)c(=O)c2c1 [Compound 481, 6-chloro-3-(((R)-1-(3,6-dimethyl-2-((1R,3S,5S)-3-(4-methyl-1H-pyrazol-1-yl)-8-azabicyclo[3.2.1]octan-8-yl)-4-oxo-3,4-dihydroquinazolin-8-yl)ethyl)amino)-N-(methylsulfonyl) picolinamide] | 0.25 to 0.5 | 1 to 5 | – |
